Experimental data as given in ChEMBL document CHEMBL1149021, “Vasoactive substances from Saussurea lappa” (J Nat Prod, 1986).
The source made the active and inactive calls. The calls are words filed in the database; no cut-off is given here.

Organism: Oryctolagus cuniculus
Assay: Vasorelaxant activity in rabbit aorta assessed as inhibition of KCl-induced contraction
Format: functional, tissue-based

Compound | Activity
C=C1CC[C@H]2C(=C)C(=O)O[C@@H]2C2C(=C)CCC12 (some centres not stated) | Active
C=C1C(=O)O[C@@H]2/C=C(\C)CC/C=C(\C)CC[C@@H]12 | Active
